System: Rattus norvegicus
Experiment: Tested for the decrease in blood pressure at a dose of ~5 mg/kg by intravenous administration for ~24h
Type: functional

Row | Structure (SMILES) | Blood pressure [mmHg]
1 | CCCCCc1nc(SCc2ccc(-c3ccccc3C(=O)O)cc2)nn1Cc1ccc(-c2ccccc2C(=O)O)cc1 | 24

Biological target: Oryctolagus cuniculus angiotensin II receptor
Experiment: Inhibition of angiotensin II induced contractions in rabbit aortic ring preparation.

Row | Structure (SMILES) | pA2
2 | O=C(O)c1ccccc1-c1ccc(CSc2nc(Cc3ccccc3)n(Cc3ccc(-c4ccccc4C(=O)O)cc3)n2)cc1 | 7
3 | CCCCCCCCc1nc(S(=O)(=O)Cc2ccc(-c3ccccc3C(=O)O)cc2)nn1Cc1ccc(-c2ccccc2C(=O)O)cc1 | 6.1
4 | CCCCCCCc1nc(S(=O)(=O)Cc2ccc(-c3ccccc3C(=O)O)cc2)nn1Cc1ccc(-c2ccccc2C(=O)O)cc1 | 6.5
5 | CCCCCCCc1nc(SCc2ccc(-c3ccccc3C(=O)O)cc2)nn1Cc1ccc(-c2ccccc2C(=O)O)cc1 | 6.7
6 | CCCCCc1nc(SCc2ccc(-c3ccccc3C(=O)O)cc2)nn1Cc1ccc(-c2ccccc2C#N)cc1 | < 5
7 | CCCCc1nc(SCc2ccc(-c3ccccc3C(=O)O)cc2)n(Cc2ccc(-c3ccccc3C(=O)O)cc2)n1 | 7
8 | CCCCCCc1nc(S(=O)(=O)Cc2ccc(-c3ccccc3C(=O)O)cc2)nn1Cc1ccc(-c2ccccc2C(=O)O)cc1 | 8.1
9 | CC(C)Cc1nc(SCc2ccc(-c3ccccc3C(=O)O)cc2)nn1Cc1ccc(-c2ccccc2C(=O)O)cc1 | 7.5
10 | CCCCc1nc(SCc2ccc(-c3ccccc3C(=O)OC)cc2)nn1Cc1ccc(-c2ccccc2C(=O)OC)cc1 | < 5
11 | CCCCc1nc(SCc2ccc(-c3ccccc3C(=O)O)cc2)nn1Cc1ccc(-c2ccccc2C(=O)O)cc1 | 8.3
12 | CCCCCc1nc(SCc2ccc(-c3ccccc3C(=O)OC)cc2)nn1Cc1ccc(-c2ccccc2C(=O)OC)cc1 | < 5
13 | O=C(O)c1ccccc1-c1ccc(CSc2nc(Cc3ccccc3)nn2Cc2ccc(-c3ccccc3C(=O)O)cc2)cc1 | 6.1
14 | CCCCCCCc1nc(SCc2ccc(-c3ccccc3C(=O)O)cc2)n(Cc2ccc(-c3ccccc3C(=O)O)cc2)n1 | 5.9
15 | CCCCCc1nc(SCc2ccc(-c3ccccc3C(=O)O)cc2)nn1Cc1ccc(-c2ccccc2C(=O)O)cc1 | 8.4
16 | CCCCCc1nc(SCc2ccc(-c3ccccc3C#N)cc2)nn1Cc1ccc(-c2ccccc2C(=O)O)cc1 | 6.3
17 | CCCCCCc1nc(SCc2ccc(-c3ccccc3C(=O)O)cc2)nn1Cc1ccc(-c2ccccc2C(=O)O)cc1 | 8
18 | CCCCCc1nc(SCc2ccc(-c3ccccc3C(=O)O)cc2)n(Cc2ccc(-c3ccccc3C(=O)O)cc2)n1 | 7.2

System: Rattus norvegicus
Experiment: Tested for the decrease in blood pressure at a dose of ~10 mg/kg by intravenous administration for ~24h
Type: functional

Row | Structure (SMILES) | Blood pressure [mmHg]
19 | CCCCc1nc(Cl)c(CO)n1Cc1ccc(-c2ccccc2-c2nnn[nH]2)cc1 [LOSARTAN] | 37
